Each compound was assayed against BTK (Homo sapiens, UniProt Q06187) (assay: biochemical). Conditions: read-out: BTK inhibition (%).
BTK, sequence (Q06187 402-655 limits assumed): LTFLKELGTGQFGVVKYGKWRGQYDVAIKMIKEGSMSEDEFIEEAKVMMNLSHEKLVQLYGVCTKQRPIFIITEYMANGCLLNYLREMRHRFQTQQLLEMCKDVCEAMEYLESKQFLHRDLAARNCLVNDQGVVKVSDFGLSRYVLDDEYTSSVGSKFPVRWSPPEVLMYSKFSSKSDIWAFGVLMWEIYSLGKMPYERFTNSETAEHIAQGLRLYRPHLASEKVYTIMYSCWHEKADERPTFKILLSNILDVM

Compound | inhibition at 10 µM
CCC1(O)C(=O)OCc2c1cc1n(c2=O)Cc2cc3cc(O)ccc3nc2-1 (stereo not shown) [PCM-0094873] | 6.2%
CCN1C[C@]2(OC(=O)c3ccccc3NC(C)=O)CC[C@H](OC)[C@@]34[C@@H]2C[C@@H]([C@@H]13)[C@@]1(O)C[C@H](OC)[C@H]2C[C@@H]4[C@]1(O)[C@H]2OC [PCM-0094835] | 21%

Same assay, conditions: read-out: BTK inhibition (%), 0.75 uM BTK, […] probe 3l, 15 min preincubation

Compound | inhibition at 10 µM
COc1cc2c(=O)c3c(O)c([C@@H]4O[C@H](CO[C@@H]5OC[C@](O)(CO)[C@H]5O)[C@@H](O)[C@H](O)[C@H]4O)c(O)cc3oc2cc1O [PCM-0216492] | -13.1%
N#Cc1ccc2ncnc(NCCc3ccccc3)c2c1 [PCM-0215834] | -30.3%
COc1ccc(NS(=O)(=O)c2sc3ccc(Cl)cc3c2C)cc1N1CCNCC1 [PCM-0095497] | -35%
Cc1cc(Nc2ccc(NC(=O)c3ccc(Nc4ccnc5ccccc45)cc3)cc2)nc(N)n1 [PCM-0215241] | 17%
NCCNc1ccc(NCCN)c2c1C(=O)c1ccncc1C2=O [PCM-0215996] | 23.2%
COc1ccc2c(c1)c(CC(=O)OCC(=O)O)c(C)n2C(=O)c1ccc(Cl)cc1 [PCM-0085879] | -19.3%
Cc1ccc(O)c([C@H](CCN(C(C)C)C(C)C)c2ccccc2)c1 [PCM-0095328] | 1.6%
C[C@H]1O[C@@H](O[C@H]2CC[C@@]3(C)[C@@H](CC[C@]4(C)[C@@H]3C=C[C@]35OC[C@@]6(CCC(C)(C)C[C@H]63)[C@H](O)C[C@]54C)[C@]2(C)CO)[C@H](O)[C@@H](O[C@@H]2O[C@H](CO)[C@@H](O)[C@H](O)[C@H]2O)[C@H]1O [PCM-0216171] | 5.4%
Cc1c(-c2ccnn2C)cc(C(=O)NCc2ccc(S(C)(=O)=O)cn2)c(=O)n1-c1cccc(C(F)(F)F)c1 [PCM-0215318] | -3.1%
CCC(C)(C)C(=O)O[C@H]1C[C@@H](C)C=C2C=C[C@H](C)[C@H](CC[C@@H]3C[C@@H](O)CC(=O)O3)[C@H]21 [PCM-0214653] | -13.1%
CC(C)NCC(O)COc1ccc(CCOCC2CC2)cc1 (stereo not shown) [PCM-0064542] | 21%
C=C[C@H]1CN2CC[C@]3(C(=O)Nc4ccccc43)[C@@H]2C[C@@H]1/C(=C\OC)C(=O)OC [PCM-0216538] | 6.2%
NCC[C@H](O)C(=O)N[C@@H]1C[C@H](N)[C@@H](O[C@H]2O[C@H](CN)[C@@H](O)[C@H](O)[C@H]2O)[C@H](O)[C@H]1O[C@H]1O[C@H](CO)[C@@H](O)[C@H](N)[C@H]1O [PCM-0215174] | 9.4%
CCN1CCC[C@H]1CNC(=O)c1cc(S(N)(=O)=O)ccc1OC [PCM-0065527] | -6.2%
CC(O)c1cc(C(=O)N[C@@H](C)Cn2ccc(-c3ccc(C#N)c(Cl)c3)n2)n[nH]1 (stereo partly shown) [PCM-0215540] | -20.8%
CCOC(=O)c1cnc2ccc(-c3cncc(NS(=O)(=O)c4ccccc4)c3)cn12 [PCM-0215311] | -4.1%
O=C(O)[C@H]1CSC(c2nc3ccc(O)cc3s2)=N1 [PCM-0215581] | -16.2%
CC1=CC(=O)CC(C)(C)[C@@]1(O)/C=C/C(C)=C\C(=O)O [PCM-0215371] | 9.3%
CNc1ncc2cc(-c3cc(NC(=O)NCCC(C)(C)C)c(F)cc3C)c(C)nc2n1 [PCM-0215477] | 40.9%
Cc1cccc(Oc2cnc(=O)[nH]c2)c1 [PCM-0215674] | -17%
C[C@@H]1OC(O)[C@@H](O)[C@H](O)[C@@H]1O (stereo partly shown) [PCM-0216337] | -23.2%
NS(=O)(=O)c1cc(Cl)c(Cl)c(S(N)(=O)=O)c1 [PCM-0086380] | -4.7%
CC(C)NCC(O)COc1cccc2ccccc12 (stereo not shown) [PCM-0064763] | -12.5%
CC(=O)OCC(=O)[C@@]12N=C(C)O[C@@H]1C[C@H]1[C@@H]3CCC4=CC(=O)C=C[C@]4(C)[C@H]3[C@@H](O)C[C@@]12C [PCM-0086410] | -7.6%

Compound | inhibition at 10 µM
CCNC(=O)c1[nH]nc(-c2cc(Cl)c(O)cc2O)c1-c1ccc(OC)cc1 [PCM-0215298] | 21.6%
CC(C)OC(=O)C1=CN(C(=O)c2ccc(F)c(F)c2)CC(C)(C)c2c1[nH]c1ccccc21 [PCM-0095387] | 3.4%
CC[C@H]1OC(=O)[C@H](C)[C@@H](O[C@H]2C[C@@](C)(OC)[C@@H](O)[C@H](C)O2)[C@H](C)[C@@H](O[C@@H]2O[C@H](C)C[C@H](N(C)C)[C@H]2O)[C@](C)(O)C[C@@H](C)C(=O)[C@H](C)[C@H]2OC(=O)O[C@@]21C [PCM-0215364] | -20.8%
Cc1[nH]c(/C=C2\C(=O)Nc3ccccc32)c(C)c1CCC(=O)O [PCM-0095149] | 52.4%
Nc1[nH]c(=O)ncc1Br [PCM-0216584] | 8.5%
COc1cc(CO)ccc1O [PCM-0215042] | 0%
COc1cc(O)c(C(=O)c2ccccc2)cc1S(=O)(=O)O [PCM-0214826] | -1.6%
Cc1ccc(NC(=O)Nc2cc(C(F)(F)F)ccc2F)cc1Nc1ccc2c(c1)NC(=O)/C2=C\c1ccc[nH]1 [PCM-0215372] | 116%
CN(C)CCCN1c2ccccc2Sc2ccc(Cl)cc21 [PCM-0064436] | -16.3%
NCCCC[C@H](N[C@@H](CCc1ccccc1)C(=O)O)C(=O)N1CCC[C@H]1C(=O)O [PCM-0085899] | 1.7%
COC(c1ccccc1)(c1ccccc1)[C@H](Oc1nc(C)cc(C)n1)C(=O)O [PCM-0095259] | 10.9%
CC(=O)OCC1=C[C@@H]2OC(=O)C3=CO[C@@H](O[C@@H]4O[C@H](CO)[C@@H](O)[C@H](O)[C@H]4O)[C@H]1[C@@H]32 [PCM-0216352] | 10.8%
CC(=O)c1ccc(C)cc1O [PCM-0215921] | -6.9%
CCNC(=O)[C@@H]1CCCN1C(=O)[C@H](CCCN=C(N)N)NC(=O)[C@H](CC(C)C)NC(=O)[C@@H](CC(C)C)NC(=O)[C@H](Cc1ccc(O)cc1)NC(=O)[C@H](CO)NC(=O)[C@H](Cc1c[nH]c2ccccc12)NC(=O)[C@H](Cc1cnc[nH]1)NC(=O)[C@@H]1CCC(=O)N1 [PCM-0214915] | -11.7%
C=CC(=O)N1CCC(Oc2cc3c(Nc4ccc(Cl)c(Cl)c4F)ncnc3cc2OC)CC1 [PCM-0215416] | 119%
Cc1ccc2nc(NC(=O)CSc3nc4c(c(=O)n3-c3ccccc3)SCC4)sc2c1 [PCM-0215324] | 10.2%
CNc1nc(Nc2cnn([C@H]3CCN(C4COC4)C[C@@H]3F)c2Cl)ncc1C(F)(F)F [PCM-0215360] | 0%
CN(C)CCCn1cc(C2=C(c3c[nH]c4ccccc34)C(=O)NC2=O)c2ccccc21 [PCM-0095737] | 47.6%
Cc1ncc([N+](=O)[O-])n1CC(C)O (stereo not shown) [PCM-0086479] | -3.9%
COCCCOc1ccnc(C[S+]([O-])c2nc3ccccc3[nH]2)c1C (stereo not shown) [PCM-0214837] | -10.1%
CC1(C)O[C@@H]2C[C@H]3[C@@H]4CCC5=CC(=O)C=C[C@]5(C)[C@@]4(F)[C@@H](O)C[C@]3(C)[C@]2(C(=O)CO)O1 [PCM-0095180] | 6.9%
CN(C)c1ccc2c(c1)Sc1cc(N(C)C)ccc1N2 [PCM-0215668] | 72.6%
CN[C@@H]1[C@H](O[C@H]2[C@H](O[C@H]3[C@H](O)[C@@H](O)[C@H](N=C(N)N)[C@@H](O)[C@@H]3N=C(N)N)O[C@@H](C)[C@]2(O)CO)O[C@@H](CO)[C@H](O)[C@H]1O [PCM-0085923] | 9.4%
C[n+]1cc2c3c(ccc2c2ccc4cc5c(cc4c21)OCO5)OCO3 [PCM-0065605] | 75.7%

Compound | inhibition at 10 µM
CCOC(=O)[C@H]1O[C@@H]1C(=O)N[C@@H](CC(C)C)C(=O)NCCC(C)C [PCM-0215286] | 14.7%
CCC(=O)NC[C@@H]1C[C@H]1c1cccc2c1CCO2 [PCM-0216634] | 3.9%
Cc1ccc2nc(NCCN)c3ncc(C)n3c2c1 [PCM-0215260] | -16.6%
CO/N=C(\C(=O)N[C@@H]1C(=O)N2C(C(=O)[O-])=C(C[n+]3cccc4c3CCC4)CS[C@H]12)c1csc(N)n1 [PCM-0214899] | -4.7%
COCCn1c2c([n+](Cc3cnccn3)c1C)C(=O)c1ccccc1C2=O [PCM-0094937] | -17.9%
C[C@@H]1CC(=O)NN=C1c1ccc(NN=C(C#N)C#N)cc1 [PCM-0090272] | 21.8%
C[N+]1(C)CCC(=C(c2ccccc2)c2ccccc2)CC1 [PCM-0085922] | 13.2%
COc1ccc(C2=N[C@H](c3ccc(Cl)cc3)[C@H](c3ccc(Cl)cc3)N2C(=O)N2CCNC(=O)C2)c(OC(C)C)c1 [PCM-0215386] | -27.8%
C/C(=C(/CCOC(=O)C(C)C)SS/C(CCOC(=O)C(C)C)=C(\C)N(C=O)Cc1cnc(C)nc1N)N(C=O)Cc1cnc(C)nc1N [PCM-0216636] | -16.2%
O=C(NOCC1CC1)c1ccc(F)c(F)c1Nc1ccc(I)cc1Cl [PCM-0094919] | 5.5%
Cc1ccc(C(C)C)cc1O [PCM-0215926] | -21.4%
O=C[C@H](O)[C@@H](O)[C@H](O)CO [PCM-0214661] | -12.5%
Cn1cc(/C=C/C(=O)c2cccc(F)c2)cc1/C=C/C(=O)NO [PCM-0095164] | 34.2%
CO/N=C(\C(=O)N[C@@H]1C(=O)N2C(C(=O)OCOC(=O)C(C)(C)C)=C(/C=C\c3scnc3C)CS[C@H]12)c1csc(N)n1 [PCM-0214651] | 28%
CCCCCCCCCCCCCCCC(=O)OC[C@H](O)[C@H]1OC(=O)C(O)=C1O [PCM-0095304] | -34.2%
Clc1ccccc1C(c1ccccc1)(c1ccccc1)n1ccnc1 [PCM-0064702] | -2.3%
CCOC(=O)/C=C/c1ccc(O)c(OC)c1 [PCM-0215040] | -8.3%
O=C(O)c1ccc(CN2CCC(CN[C@@H]3C[C@H]3c3ccccc3)CC2)cc1 [PCM-0215597] | 0.8%
COC(=O)c1ccc(O)cc1 [PCM-0215083] | -5.4%
O=c1nc(N2CCOCC2)oc2c(-c3cccc4c3sc3ccccc34)cccc12 [PCM-0215826] | -1.4%
C[C@@]1(CO)C[C@@H](O)C[C@@]2(C)[C@@H]3CC[C@](C)([C@@H](O)CO)C=C3CC[C@H]12 [PCM-0216530] | 20.8%
Cc1cccc(CC(=O)N2CCc3c2ccc(-c2cn(C)c4ncnc(N)c24)c3F)n1 [PCM-0095729] | -9%
CCC/C=C1\OC(=O)C2=C1CCC=C2 [PCM-0216295] | 14.7%

Reference: paper PMC8041284, “Tunable Methacrylamides for Covalent Ligand Directed Release Chemistry” (Journal of the American Chemical Society, 2021)
